From patent US10266497B2 (ABIDE THERAPEUTICS, INC., priority 2017, dated 2019)

How the values were obtained:
MAGL [1] = molecular target: T1, MAGL (Mus musculus, UniProt O35678); assay: In vitro competitive activity-based protein profiling, MAGL, mouse; settings: read-out: MAGL % inh. 1 μM (mouse)
T1 sequence (O35678 1-303): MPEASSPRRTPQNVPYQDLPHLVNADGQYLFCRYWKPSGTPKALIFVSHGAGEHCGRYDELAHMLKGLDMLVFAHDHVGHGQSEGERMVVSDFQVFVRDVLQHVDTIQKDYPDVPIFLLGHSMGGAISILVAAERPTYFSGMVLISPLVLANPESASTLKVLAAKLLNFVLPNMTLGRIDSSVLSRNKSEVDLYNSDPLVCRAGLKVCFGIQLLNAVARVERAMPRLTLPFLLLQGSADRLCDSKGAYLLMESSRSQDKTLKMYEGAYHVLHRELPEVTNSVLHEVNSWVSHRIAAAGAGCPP

MAGL [2] = molecular target: T2, MAGL (Homo sapiens, UniProt Q99685); assay: In vitro competitive activity-based protein profiling, MAGL, human; settings: for inhibition at 1 µM: read-out: MAGL % inh. 1 μM (human); for inhibition at 10 µM: read-out: MAGL % inh. (human) at 10 uM
T2 sequence (Q99685 1-303): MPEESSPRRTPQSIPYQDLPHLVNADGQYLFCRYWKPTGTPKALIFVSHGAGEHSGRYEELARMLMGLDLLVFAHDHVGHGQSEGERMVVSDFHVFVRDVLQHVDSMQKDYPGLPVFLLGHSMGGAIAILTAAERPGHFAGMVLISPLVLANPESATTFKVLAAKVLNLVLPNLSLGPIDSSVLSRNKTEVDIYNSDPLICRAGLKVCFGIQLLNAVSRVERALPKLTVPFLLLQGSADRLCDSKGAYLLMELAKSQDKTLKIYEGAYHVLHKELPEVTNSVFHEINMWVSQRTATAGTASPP
Method: Biological Evaluation In Vitro Competitive Activity-Based Protein Profiling.
Proteomes (mouse brain membrane fraction for mouse assays; human prefrontal cortex membrane fractions for human assays) (50 mL, 1.0 mg/mL total protein concentration) were preincubated with varying concentrations of inhibitors at 37° C. After 30 min, FP-Rh (1.0 mL, 50 mM in DMSO) was added and the mixture was incubated for another 30 min at 37° C. Reactions were quenched with SDS loading buffer (15 μL—4λ) and run on SDS-PAGE.

| inhibition at 1 µM (MAGL [1]) | inhibition at 1 µM (MAGL [2]) | inhibition at 10 µM (MAGL [2]) | Compound |
| --- | --- | --- | --- |
| > 75% | > 75% |  | C[C@H]1CN(Cc2cccc(OCC(C)(C)O)c2Cl)CCN1C(=O)n1ccc(C(N)=O)n1 [Example 450, (S)-1-(4-(2-chloro-3-(2-hydroxy-2-methylpropoxy)benzyl)-2-methylpiperazine-1-carbonyl)-1H-pyrazole-3-carboxamide] |
| > 75% | > 75% |  | O=C(O)c1ccn(C(=O)N2C[C@H]3CN(Cc4ccc(Cl)c(-c5nccs5)c4)C[C@H]3C2)n1 [Example 315, 1-((3aR,6aS)-5-(4-chloro-3-(thiazol-2-yl)benzyl)octa-hydropyrrolo[3,4-c]pyrrole-2-carbonyl)-1H-pyrazole-3-carboxylic acid] |
| > 75% | > 75% |  | CC(C)(O)COc1cccc(CN2CCN(C(=O)n3ccc(C(=O)O)n3)CC2)c1Cl [Example 213, 1-(4-(2-chloro-3-(2-hydroxy-2-methylpropoxy)benzyl)piperazine-1-carbonyl)-1H-pyrazole-3-carboxylic acid] |
| 0 to 25% |  | > 75% | O=C(O)c1ccn(C(=O)N2CCC3(CCN(C(=O)c4cc(Cl)ccc4C(F)(F)F)C3)CC2)n1 [Example 366, 1-(2-(5-chloro-2-(trifluoromethyl)benzoyl)-2,8-diazaspiro[4.5]decane-8-carbonyl)-1H-pyrazole-3-carboxylic acid] |
| > 75% | > 75% |  | C[C@@H]1CN(Cc2ccc(Cl)c(-c3nccs3)c2)CCN1C(=O)n1ccc(C(=O)O)n1 [Example 299, (R)-1-(4-(4-chloro-3-(thiazol-2-yl)benzyl)-2-methylpiperazine-1-carbonyl)-1H-pyrazole-3-carboxylic acid] |
| > 75% | > 75% |  | O=C(O)c1ccn(C(=O)N2CCN(Cc3cccc(Oc4ccnc(C(F)(F)F)c4)c3)CC2)n1 [Example 355, 1-(4-(3-((2-(trifluoromethyl)pyridin-4-yl)oxy)benzyl)piper-azine-1-carbonyl)-1H-pyrazole-3-carboxylic acid] |
| > 75% | > 75% |  | C[C@@H]1CN(Cc2ccc(-c3ccccc3)cc2F)CCN1C(=O)n1ccc(C(=O)O)n1 [Example 253, (R)-1-(4-((3-fluoro-[1,1′-biphenyl]-4-yl)methyl)-2-methylpiperazine-1-carbonyl)-1H-pyrazole-3-carboxylic acid] |
| > 75% | > 75% |  | NC(=O)c1ccn(C(=O)N2CCN(Cc3cccc(C4(C(=O)O)CCOCC4)c3)CC2)n1 [Example 455, 4-(3-((4-(3-carbamoyl-1H-pyrazole-1-carbonyl)piperazin-1-yl)methyl)phenyl) tetrahydro-2H-pyran-4-carboxylic acid] |
| > 75% | > 75% |  | O=C(O)c1ccn(C(=O)N2CCC(OCc3ccc(Cl)c(C(F)(F)F)c3)CC2)n1 [Example 276, 1-(4-((4-chloro-3-(trifluoromethyl)benzyl)oxy)piper-idine-1-carbonyl)-1H-pyrazole-3-carboxylic acid] |
| > 75% | > 75% |  | O=C(O)c1nn(C(=O)N2CCN(Cc3cccc(Oc4ccc(F)cc4)c3)CC2)cc1Cl [Example 320, 4-chloro-1-(4-(3-(4-fluorophenoxy)benzyl)piperazine-1-carbonyl)-1H-pyrazole-3-carboxylic acid] |
| > 75% | > 75% |  | O=C(O)c1ccn(C(=O)N2CCC3(CCN(Cc4cccc(-c5ccccc5)c4Cl)C3)CC2)n1 [Example 358, 1-(2-((2-chloro-[1,1′-biphenyl]-3-yl)methyl)-2,8-diazaspiro[4.5]decane-8-carbonyl)-1H-pyrazole-3-carboxylic acid] |
| > 75% | > 75% |  | O=C(O)c1ccn(C(=O)N2C[C@H]3C[C@H](Oc4ccc(-c5ccccc5)cc4)C[C@H]3C2)n1 [Example 240, 1-(trans-5-([1,1′-biphenyl]-4-yloxy)octahydro-cyclopenta[c]pyrrole-2-carbonyl)-1H-pyrazole-3-carboxylic acid] |
| > 75% | > 75% |  | CC(C)c1ccccc1O[C@H]1C[C@@H]2CN(C(=O)n3ccc(C(=O)O)n3)C[C@@H]2C1 [Example 221, 1-(trans-5-(2-isopropylphenoxy)octahydrocyclopenta [c]pyrrole-2-carbonyl)-1H-pyrazole-3-carboxylic acid] |
| > 75% | > 75% |  | C[C@@H]1CN(Cc2cccc(OCC(C)(C)O)c2Cl)CCN1C(=O)n1ccc(C(N)=O)n1 [Example 216, (R)-1-(4-(2-chloro-3-(2-hydroxy-2-methylpropoxy)benzyl)-2-methylpiperazine-1-carbonyl)-1H-pyrazole-3-carboxamide] |
| > 75% | > 75% |  | C[C@@H]1CN(Cc2ccc(-c3ccccc3)cc2C(F)(F)F)CCN1C(=O)n1ccc(C(=O)O)n1 [Example 351, (R)-1-(2-methyl-4-((3-(trifluoromethyl)-[1,1′-biphenyl]-4-yl)methyl)piperazine-1-carbonyl)-1H-pyrazole-3-carboxylic acid] |
| > 75% | > 75% |  | O=C(O)c1ccn(C(=O)N2C[C@H]3C[C@H](Oc4ccccc4-c4ccccc4)C[C@H]3C2)n1 [Example 239, 1-(trans-5-([1,1′-biphenyl]-2-yloxy)octahydro-cyclopenta[c]pyrrole-2-carbonyl)-1H-pyrazole-3-carboxylic acid] |
| > 75% | > 75% |  | CN(Cc1cccc(-c2ccccc2)c1)[C@H]1C[C@@H]2CN(C(=O)n3ccc(C(=O)O)n3)C[C@@H]2C1 [Example 298, 1-(trans-5-(([1,1′-biphenyl]-3-ylmethyl)(methyl)amino)octahydrocyc-lopenta[c]pyrrole-2-carbonyl)-1H-pyrazole-3-carboxylic acid] |
| > 75% | > 75% |  | Cc1c(CO[C@@H]2C[C@@H]3CN(C(=O)n4ccc(C(=O)O)n4)C[C@@H]3C2)cccc1C(F)(F)F [Example 289, 1-(cis-5-((2-methyl-3-(trifluoromethyl)benzyl)oxy)octa-hydrocyclopenta[c]pyrrole-2-carbonyl)-1H-pyrazole-3-carboxylic acid] |
| > 75% | > 75% |  | C[C@@H]1CN(Cc2ccc(F)c(Oc3ccccc3)c2)CCN1C(=O)n1ccc(C(=O)O)n1 [Example 294, (R)-1-(4-(4-fluoro-3-phenoxybenzyl)-2-methylpiperazine-1-carbonyl)-1H-pyrazole-3-carboxylic acid] |
| > 75% | > 75% |  | O=C(O)c1ccn(C(=O)N2C[C@H]3C[C@H](OCc4cccc(C5CCCC5)c4)C[C@H]3C2)n1 [Example 34, 1-(trans-5-((3-Cyclopentylbenzyl)oxy)octahydrocyclopenta[c]pyrrole-2-carbonyl)-1H-pyrazole-3-carboxylic Acid] |
| 0 to 25% |  | > 75% | NC(=O)c1ccc(Cl)cc1CN1CCC2(CCN(C(=O)n3ccc(C(=O)O)n3)CC2)C1 [Example 300, 1-(2-(2-carbamoyl-5-chlorobenzyl)-2,8-diazaspiro[4.5]decane-8-carbonyl)-1H-pyrazole-3-carboxylic acid] |
| > 75% | > 75% |  | O=C(O)c1ccn(C(=O)N2C[C@H]3C[C@H](Oc4cccc(-c5ccccn5)c4)C[C@H]3C2)n1 [Example 242, 1-(trans-5-(3-(pyridin-2-yl)phenoxy)octa-hydrocyclopenta[c]pyrrole-2-carbonyl)-1H-pyrazole-3-carboxylic acid] |
| > 75% | > 75% |  | CC(C)(O)COc1cccc(O[C@H]2C[C@@H]3CN(C(=O)n4ccc(C(N)=O)n4)C[C@@H]3C2)c1Cl [Example 452, 1-(trans-5-(2-chloro-3-(2-hydroxy-2-methylpropoxy)phenoxy)octahydro-cyclopenta[c]pyrrole-2-carbonyl)-1H-pyrazole-3-carboxamide] |
| > 75% | > 75% |  | O=C(O)c1nn(C(=O)N2C[C@H]3C[C@H](Oc4cccc(-c5ccccc5)c4)C[C@H]3C2)cc1C(F)(F)F [Example 369, 1-(trans-5-([1,1′-biphenyl]-3-yloxy)octahydro-cyclopenta[c]pyrrole-2-carbonyl)-4-(trifluoromethyl)-1H-pyrazole-3-carboxylic acid] |
| 0 to 25% | 25 to 50% |  | O=C(O)c1ccn(C(=O)N2C[C@H]3C[C@H](Oc4cccc(-c5ccnnc5)c4)C[C@H]3C2)n1 [Example 248, 1-(trans-5-(3-(pyridazin-4-yl)phenoxy)octa-hydrocyclopenta[c]pyrrole-2-carbonyl)-1H-pyrazole-3-carboxylic acid] |
| > 75% | > 75% |  | CC(C)(O)COc1cccc(CN2CCN(C(=O)n3ccc(C(N)=O)n3)CC2)c1Cl [Example 37, 1-(4-(2-Chloro-3-(2-hydroxy-2-methylpropoxy)benzyl)piperazine-1-carbonyl)-1H-pyrazole-3-carboxamide] |
